Measurements taken from paper PMC7243119, “Improved Surface Display of Human Hyal1 and Identification of Testosterone Propionate and Chicoric Acid as New Inhibitors” (Pharmaceuticals, 2020).

What was measured:
[1] = molecular target: T1, Hyal1 (Homo sapiens, UniProt Q12794); assay: Stains-all HA degradation assay with surface-displayed Hyal1 on E. coli cells, pH […] (incomplete curve; assay impaired beyond […]); assay type: cell-based
T1 sequence (Q12794 22-435): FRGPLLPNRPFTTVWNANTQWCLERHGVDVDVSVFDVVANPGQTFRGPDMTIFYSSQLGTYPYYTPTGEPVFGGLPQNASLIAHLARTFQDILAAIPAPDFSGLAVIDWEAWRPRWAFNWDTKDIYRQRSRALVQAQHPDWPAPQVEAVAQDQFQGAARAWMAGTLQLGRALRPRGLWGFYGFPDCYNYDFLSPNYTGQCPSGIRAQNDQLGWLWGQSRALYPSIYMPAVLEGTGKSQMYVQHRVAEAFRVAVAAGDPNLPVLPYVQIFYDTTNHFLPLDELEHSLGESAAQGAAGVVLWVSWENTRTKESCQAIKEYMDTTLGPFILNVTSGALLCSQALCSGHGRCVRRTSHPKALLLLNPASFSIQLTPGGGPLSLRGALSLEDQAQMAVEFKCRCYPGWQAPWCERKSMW

[2] = molecular target: T1, Hyal1; assay: Stains-all HA degradation assay with surface-displayed Hyal1 on E. coli cells, pH […]; assay type: cell-based

| SMILES | IC50 [1] [µM] | IC50 [2] [µM] |
| --- | --- | --- |
| O=C(/C=C/c1ccc(O)c(O)c1)O[C@@H](C(=O)O)[C@@H](OC(=O)/C=C/c1ccc(O)c(O)c1)C(=O)O [chicoric acid] | 171 |  |
| CCC(=O)O[C@H]1CC[C@H]2[C@@H]3CCC4=CC(=O)CC[C@]4(C)[C@H]3CC[C@]12C [testosterone propionate] |  | 124 ± 1.1 |
